The target of data set [1] is T1, mushroom tyrosinase (Agaricus bisporus, UniProt C7FF04). Briefly: Kinetic analysis of the inhibition of mushroom tyrosinase (Lineweaver-Burk and Dixon plots). The settings on record: Lineweaver-Burk plot; substrate L-DOPA; as-synthesized compound. Type of data set: biochemical. How it is done:
Latter, we studied the kinetic behavior of mushroom tyrosinase during the oxidation of L-DOPA with the selective ED compounds (4b and 6a). In the present investigation, the oxidation reaction of L-DOPA by mushroom tyrosinase follows the Michaelis-Menten kinetics. The inhibitory mechanism of both of the compounds was determined by using Lineweaver-Burk plot (double reciprocal plot) as well as a Dixon plot at various concentrations of substrate L-DOPA (0.0, 0.125, 0.25, 0.5, 1.0 and 2.0 mM), as shown in Fig. 4. The double-reciprocal plot of enzyme activity in the presence of compound 4b with concentration 0.0, 18.0, 36.5, 73, 146 μM and compound 6a with concentration 0.0, 6.7, 13.5, 27 μM are shown in Fig. 4(a,b), respectively. […] The Dixon plot was determined by 1/V versus inhibitor concentrations [I] at various concentrations of substrate in mM. […] Further, to determine the action of these eugenol derivatives on the structure of tyrosinase enzyme, we performed CD analysis and molecular docking studies. A series of experiments were performed to determine the inhibition kinetics using the following method. […] The formation of DOPAchrome was continuously monitored at 475 nm for 5 min at a 30 sec intervals in the microplate reader after the addition of the enzyme.

In data set [2] the target is T1, mushroom tyrosinase. Briefly: Circular dichroism analysis of the secondary structure of mushroom tyrosinase. Particulars: tyrosinase + as-synthesized compound (0 min plasma), 0.1 mM; for Turn % of tyrosinase: enzyme alone 7; for α-helix % of tyrosinase: enzyme alone 16; for β-sheet % of tyrosinase: enzyme alone 33; for Random coil % of tyrosinase: enzyme alone 44. The procedure:
The structural changes in tyrosinase after incubation with ED and PAED were plotted in Fig. 5. […] We observed that the control tyrosinase enzyme has 16% α-helix, 33% β-sheets, 7% turn, and 44% random coil. After the interaction with 4a, the amount of α-helix changed to 15% and β-sheets changed to 35%. On the other hand, after the plasma treatment of 4a the amount of α-helix changed to 17% and β-sheets changed to 31%. While, after interacting with 4b, the amount of α-helix is 16.0%, β-sheets 29%, turn 10%, and random coil is 45.0%. However, plasma-activated 4b interacts differently with tyrosinase enzyme, showing 16% α-helix, 33% β-sheets, 6% turn, and 45% random coil. When 6a ED interacted with tyrosinase enzyme, we observed 20% α-helix, 25% β-sheets, 11.0% turn, and 44% random coil. However, 6a PAED interacts with tyrosinase enzyme, the α-helix changed to 19%, β-sheets 28%, turn 9%, and random coil 44%. […] To obtain further detail on the interaction of the ED with tyrosinase enzyme, we studied the molecular docking. For the CD spectroscopic studies[65][66][67] a J-815 spectrophotometer (Jasco, Japan) was used, equipped with a Peltier system that controlled the temperature. (1S)-(+)-10-camphorsulfonic acid (Aldrich, Milwaukee, WI) with a molar extinction coefficient of 34.5 M/cm at 285 nm and a 2.36 M/cm molar ellipticity (θ) at 295 nm was used for the CD calibrations. The samples were pre-equilibrated at the desired temperature for 15 min, and the scan speed was fixed for adaptative sampling (error F 0.01) with a response time of 1 sec and a 1 nm bandwidth. The secondary structure of the mushroom tyrosinase was monitored by using a 1.0 cm path length cuvette. The mushroom tyrosinase (0.2 mg/ml) was prepared in phosphate buffer (20 mM) at pH 6.8 for CD analysis. We used the 0.1 mM concentration of all derivatives in 1 ml buffer solution, with or without 10 min plasma treatment. All spectra were collected in triplicate from 200 to 250 nm and the background was corrected against the buffer (blank). The percentages of secondary structures of proteins were calculated using inbuilt Jasco software.
In general terms: CD spectra are sensitive to the conformation of chiral molecules.

Data set [3] concerns intracellular ROS in B16F10 cells. Briefly: Intracellular ROS measurement (carboxy-H2DCFDA). The settings on record: for intracellular ROS level, PAED compared to ED: plasma-treated compound versus as-synthesized compound. Type of data set: cell-based, murine. The procedure: Intracellular reactive oxygen species (ROS) were quantified using carboxy-H2DCFDA (5-(and 6)-carboxy-20,70-dichlorodihydrofluorescein diacetate), by monitoring the fluorescence intensity.
Briefly, various concentrations of as-synthesized 4b and 6a or plasma-treated 4b and 6a were incubated with cells. After 24 hr, the cells were centrifuged for 5 min at 1000 rpm and the collected cell pellet was washed with PBS and labeled with carboxy-H2DCFDA dye following 30 min of incubation at 37 °C. The samples were centrifuged again and each pellet was mixed with 500 μl PBS. The 200 μl samples were then transferred in 96-well plates (black plate, clear bottom, corning incorporated USA) and fluorescence was measured at excitation/emission: 485/528 nm using a microplate reader.

For a further data set, the system named is cAMP in B16F10 cells. Briefly: Intracellular cAMP measurement (cAMP kit). It counts as cell-based, murine. The settings on record: for cAMP level: PAED (plasma-treated compound), compared with as-synthesized compound and control; for cAMP level compared to the control: as-synthesized compound, control: media only with cells. The procedure:
For cAMP measurement, the 4b and 6a were treated with plasma for 3, 5, and 10 min, and then added to the cells, pre-incubated with or without α-MSH (100 nM) for 24 hr. The cells were trypsinised and centrifuged to obtain the cell pellets. The cell pellet was lysed and the cAMP level was measured using a cAMP Kit (Abcam, USA) according to the manufacturer’s instructions.
A general note: Cyclic AMP is a second messenger, typically raised through Gs and lowered through Gi signalling.

For data set [4], the system named is TRP1 expression in B16F10 cells. Briefly: Western blot, TRP1 expression. It counts as cell-based, murine. Particulars: 24 hr; for expression of TRP1 versus control: ED (as-synthesized); for expression of TRP1 versus ED: PAED (plasma-treated). The procedure:
(§1) Melanoma cells were incubated with as-synthesized and plasma-treated 4b and 6a test compounds for 24 hr. Following incubation, treated and untreated cells were lysed in RIPA buffer (Cell Signaling Technology, USA), whole cell protein was extracted and subjected to electrophoresis in 12% SDS-PAGE, and blotted onto nitrocellulose membranes. The membrane was probed with the antibodies raised against MITF, tyrosinase and TRP1 (Abcam, USA). The bands were detected using Super Signal West Pico Chemiluminescent Substrate (Pierce, Rockford, IL, USA) and images were taken using a Vilver imaging system (Vilver, Upland, CA, USA).
(Immunoblotting shows a protein as a band on a membrane.)

Data set [5] concerns tyrosinase expression in B16F10 cells. Briefly: Western blot, tyrosinase expression. Type of data set: cell-based, murine. Particulars: 24 hr. The procedure:
as §1

T1 sequence (C7FF04 2-392): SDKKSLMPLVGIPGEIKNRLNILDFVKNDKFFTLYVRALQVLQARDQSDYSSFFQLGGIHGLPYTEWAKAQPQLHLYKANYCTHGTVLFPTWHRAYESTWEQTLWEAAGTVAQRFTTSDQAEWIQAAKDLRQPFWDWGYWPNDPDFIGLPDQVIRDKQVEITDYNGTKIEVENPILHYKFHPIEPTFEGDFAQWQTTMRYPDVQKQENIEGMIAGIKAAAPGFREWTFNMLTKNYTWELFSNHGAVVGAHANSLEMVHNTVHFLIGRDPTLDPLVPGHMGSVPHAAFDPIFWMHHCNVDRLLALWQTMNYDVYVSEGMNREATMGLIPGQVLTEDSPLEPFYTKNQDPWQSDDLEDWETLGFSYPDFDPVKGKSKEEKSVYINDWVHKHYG

In turn, `C=CCc1ccc(OC(=O)COC(=O)c2ccc(O)cc2)c(OC)c1` [4b, 2-[2-methoxy-4-(prop-2-en-1-yl)phenoxy]-2-oxoethyl 4-hydroxybenzoate] returned a melting point of 81 to 83 °C. Also, at mushroom tyrosinase [1], the type of inhibition result is on record as “competitive inhibitor”. For the same compound, at mushroom tyrosinase [2], the “Turn % of tyrosinase” value came to 10%, the “α-helix % of tyrosinase” value is 16.0%, the “β-sheet % of tyrosinase” value is 29% and the “Random coil % of tyrosinase” value came to 45.0%. For the same compound, at mushroom tyrosinase [2] (listed as 4b-0 min), the “α-helix % of tyrosinase” value was 16% and the “Random coil % of tyrosinase” value was determined as 45%. In addition, in data set [3] (independent of plasma treatment), the “intracellular ROS, comparison between compounds” value is “higher intracellular ROS than 6a”. The “intracellular ROS level, PAED compared to ED” value in data set [3] is recorded as “higher intracellular ROS levels”. Besides, in the data set with cAMP in B16F10 cells, the cAMP level result is reported as “enhanced even further” and the “cAMP level compared to the control” value is “increased”. Also, in data set [4], the “expression of TRP1 versus control” value was “higher expression” and the “expression of TRP1 versus ED” value is “more expression”. Also, the “cellular tyrosinase expression versus control” value in data set [5] (ED (as-synthesized)) is given as “no change”. Moreover, the “cellular tyrosinase expression versus control” value in data set [5] (PAED (plasma-treated)) was “no change”.

Regarding `C=CCc1ccc(OC(=O)COC(=O)/C=C/c2ccc(O)cc2)c(OC)c1` [6a, 2-[2-methoxy-4-(prop-2-en-1-yl)phenoxy]-2-oxoethyl(2E)-3-(4-hydroxyphenyl)prop-2-enoate], the melting point lay within 114 to 116 °C. Moreover, on mushroom tyrosinase [1], the type of inhibition entry was “uncompetitive inhibitor”. Moreover, at mushroom tyrosinase [2], the “Turn % of tyrosinase” value came out at 11.0%, the “α-helix % of tyrosinase” value is on record as 20%, the “β-sheet % of tyrosinase” value stood at 25% and the “Random coil % of tyrosinase” value amounted to 44%. Moreover, the “Turn % of tyrosinase” value on mushroom tyrosinase [2] (listed as 6a-0 min) was 11%. The “intracellular ROS level, PAED compared to ED” value in data set [3] is “higher intracellular ROS levels”. Moreover, in the data set with cAMP in B16F10 cells, the cAMP level result is “enhanced even further” and the “cAMP level compared to the control” value was “increased”. In addition, in data set [4], the “expression of TRP1 versus control” value is on record as “higher expression” and the “expression of TRP1 versus ED” value is on record as “more expression”. The “cellular tyrosinase expression versus control” value in data set [5] (ED (as-synthesized)) is reported as “no change”. For the same compound, the “cellular tyrosinase expression versus control” value in data set [5] (PAED (plasma-treated)) was “no change”.

Broadly, the melting point is the temperature of the solid-liquid transition.

For the origin of these results see PMC4773869, “Influence of plasma-activated compounds on melanogenesis and tyrosinase activity” (Scientific Reports, 2016).
